# Earlier results in paper PMC13170702 (Nuclear medicine and biology, 2025).
# Where two headings read alike, the source gives them in different places.
# Columns and labels:
# [1] = i.v., low molar activity tracer, PET-CT; cited from earlier work
# [2] = i.v., low molar activity tracer, PET-CT; cited from earlier work; remark: listed apart in the source
smiles,measurement,setting,value
"COC(=O)[C@@H](N)CC(=O)Nc1ccc2c(c1)Cc1cc([18F])ccc1-2 [[^18F]RP-115, methyl N^4-(7-[^18F]fluoro-9H-fluoren-2-yl)asparaginate]",CNS activity uptake (SUV),[1],> 1
same,CNS activity uptake (SUV),[2],> 1
